From publication PMC10499737 (Inflammation Research, 2023)
Like-named read-outs stand apart in the source and are kept apart here. Blank lines part the entries; values can stand above or below the molecule they belong to.

What was measured:
healthy volunteers = system: healthy volunteers; set-up: method as in PMID 29484635; conditions: once daily up to 40 mg for up to 28 days; cited from earlier work
[1] = system: patients with bronchiectasis; conditions: 10 mg or 25 mg once daily, 24 weeks; cited from earlier work
[2] = system: NE activity in mouse BALF neutrophils; assay: In vivo LPS-challenge model: NE activity in BALF neutrophil lysate; conditions: 11-day dosing
Method: In the first—a 2-day treatment holiday regimen—mice were treated with 0.005, 0.05, 0.5 or 5 mg/kg BI 1291583, or vehicle, twice daily by oral gavage on Days 1‒5, 8 and 9. On Day 10, a final dose of BI 1291583 or vehicle was given followed by challenge with nebulised E. coli lipopolysaccharide (LPS) to induce neutrophil influx into the lungs. In the second dosing regimen, mice were treated with 0.00005, 0.0001, 0.001, 0.01, 0.03, 0.1, 0.5 or 5 mg/kg BI 1291583, or vehicle, once daily by oral gavage for 11 consecutive days. On Day 12, a final dose of BI 1291583 or vehicle was given followed by LPS challenge.
Four and a half hours after LPS challenge, lung neutrophils were harvested by lavage via tracheal cannula, and neutrophil count measured. Bronchoalveolar lavage fluid (BALF) samples were then centrifuged and cell pellets lysed with volume of lysis buffer normalised to neutrophil count. NE, CatG and PR3 activity were determined by conversion of a fluorescent substrate measured over time with a SpectramaxM5 fluorescence reader at 360 nm excitation wavelength and 460 nm emission wavelength. Fluorescence values were normalised to neutrophil count, and mean NE, CatG and PR3 activity from BI 1291583-treated animals was calculated relative to the mean of LPS/vehicle-treated control animals. CatG and PR3 activity was measured in pooled samples from each dose group. For the 11-day dosing experiments, the dose of BI 1291583 that inhibited 50% of NE activity (ED50) was calculated using GraphPad Prism software (version 9.5.0 for Windows, GraphPad Software, www.graphpad.com) with a non-linear regression curve fit. […] A one-way analysis of variance with Dunnett’s multiple comparisons test analysis was performed to determine statistical significance.
The inhibitory activity of INS1007 on the production of active NE, and distribution of INS1007 to bone marrow and plasma was investigated under the same conditions as the 11-day dosing regimen (see Methods, Additional File 1).
(§1) The animals were treated with BI 1291583 (0.005, 0.05, 0.5 and 5 mg/kg) or vehicle twice daily on Days 1‒5, 8 and 9. BI 1291583 or vehicle was applied orally by gavage (10 ml/kg body weight). On Day 10, animals were treated with BI 1291583 or vehicle followed by an LPS inhalation challenge.
as §1, with “(0.00005, 0.0001, 0.001, 0.01, 0.03, 0.1, 0.5,” for “(0.005, 0.05, 0.5 and”, “once” for “twice”, “for 11 consecutive days.” for “on Days 1‒5, 8 and 9.”, “12,” for “10,”
To induce neutrophil influx into the lungs, animals were challenged with an LPS inhalation at Day 12 of this study. LPS from E.coli (serotype 055:B5) was used (SigmaAldrich #L2880). […]
The trachea was cannulated and a lavage was performed using 2x1 ml lavage buffer (HBSS [HyClone, # Sh30588,01] with 10 U/ml heparin). Cell count in the lavage fluid and cell differentiation were determined using a haemocytometer (Sysmex XT-200i), following the supplier’s instructions.
For enzymatic NE measurement, the lavage cells were separated from two 500 µl aliquots of lavage fluid by centrifugation (1500rpm, 4°C, 15min), the supernatants were removed and the pellets were stored at -80°C for further analyses. For enzymatic proteinase 3 (PR3) and Cat G measurement, the remaining lavage samples from all animals of each dose group were pooled and cell count and cell differentiation were determined as described above. […]

[3] = Bone marrow and plasma exposure after repeated oral dosing (LC-MS/MS); format: in vivo; conditions: Crl:NMRI, mouse, 11-day dosing; for Kp at 5 h: bone marrow/plasma, 5 h after final dose, read-out: bone marrow-to-plasma exposure ratio
Method: At 5 h after final BI 1291583 administration, animals were euthanised by Narcoren application (400–600 mg/kg intraperitoneally). For assessment of BI 1291583 exposure in plasma, five drops of retrobulbar blood were taken. The femur was prepared by extraction, shock frozen in liquid nitrogen and stored at − 20 °C until bone marrow preparation. For preparation of bone marrow, epiphysis severed off and bone marrow extracted from the diaphysis. Exposure was measured via liquid chromatography–tandem mass spectrometry. […]

[4] = system: production of active NE in U937 cells; assay: Inhibition of the production of active NE in a neutrophil progenitor cell line; format: cell-based; conditions: Homo sapiens, U-937, 48 h incubation
Excerpt: The inhibitory activity of BI 1291583 on the production of active NE was investigated in duplicate experiments in the human myeloid cell line U937. U937 cells were used as they constitutively express and process NE. Additionally, a myeloid cell line was used rather than primary neutrophils as CatC activates NSPs in the bone marrow during myelopoiesis and no further activation occurs once the neutrophils have entered the bloodstream; as such, the effect of CatC inhibition cannot be investigated in primary neutrophils. BI 1291583 was added to cell suspensions at a final concentration of 0.064, 0.32, 1.6, 8, 40, 200 and 1000 nM. Cells were then incubated for 48 h. Cell viability was then measured in duplicate experiments using the CellTiter-Glo® Luminescent Cell Viability Assay according to manufacturer’s instructions. For measurement of NE activity, cells were separated by centrifugation, lysed and debris removed. NE activity was measured by conversion of a fluorescent substrate. Increase in fluorescence was measured over time with a SpectramaxM5 fluorescence reader at 360 nm excitation wavelength and 460 nm emission wavelength. The reaction rate when CatC is fully saturated by BI 1291583 was used as primary readout to calculate NE activity. Percentage inhibition of NE activity in lysates treated with BI 1291583 was calculated relative to the mean of the vehicle-only control. […]

[5] = set-up: method as in PMID 28800383; conditions: Phase 1 study; cited from earlier work

Structure (SMILES): Cn1c(=O)oc2ccc(-c3ccc(C[C@@H](C#N)NC(=O)[C@@H]4CNCCCO4)cc3)cc21 [brensocatib]
NE activity (healthy volunteers): Exposure-related reduction | safety profile (healthy volunteers): generally well-tolerated | skin findings (healthy volunteers): several dose-dependent, possibly CatC-related non-serious skin findings (exfoliation and hyperkeratosis) | annualised rates of exacerbations and number of severe exacerbations compared with placebo [1]: lower | incidence of hyperkeratosis compared with the placebo group [1]: higher | risk of exacerbation over the treatment period compared with placebo [1]: lower | time to first exacerbation compared with placebo [1]: significantly increased

concentration at 5 h ([3]; bone marrow, 0.1 mg/kg, 5 h after final dose on Day 12, read-out: exposure in bone marrow, mean (SEM)): 143 nM | concentration at 5 h ([3]; bone marrow, 0.5 mg/kg, 5 h after final dose on Day 12, read-out: exposure in bone marrow, mean (SEM)): 321 nM | concentration at 5 h ([3]; bone marrow, 5 mg/kg, 5 h after final dose on Day 12, read-out: exposure in bone marrow, mean (SEM)): 1690 nM | Kp at 5 h ([3]; 0.1 mg/kg, 0.1 mg/kg): 24 | Kp at 5 h ([3]; 0.5 mg/kg, 0.5 mg/kg): 8 | Kp at 5 h ([3]; 5 mg/kg, 5 mg/kg): 2 | concentration at 5 h ([3]; plasma, 0.1 mg/kg, 5 h after final dose on Day 12, read-out: exposure in plasma, mean (SEM)): 6 nM | concentration at 5 h ([3]; plasma, 0.5 mg/kg, 5 h after final dose on Day 12, read-out: exposure in plasma, mean (SEM)): 40 nM | concentration at 5 h ([3]; plasma, 5 mg/kg, 5 h after final dose on Day 12, read-out: exposure in plasma, mean (SEM)): 710 nM | IC50 [4]: 64 nM
Structure (SMILES): Cn1c(=O)oc2ccc(-c3ccc(C[C@@H](C#N)NC(=O)[C@@H]4CNCCCO4)cc3)cc21 [INS1007]
inhibition of production of active NE compared with vehicle/LPS control ([2]; 0.1 mg/kg once daily oral): no inhibition | inhibition at 30 mg/kg ([2]; Mus musculus, Neutrophil, 264 h, at 30 mg/kg (range 0.3-50 mg/kg), p<0.001, read-out: maximum inhibition of production of active NE compared with LPS control): 76% | inhibition at 0.5 mg/kg ([2]; Mus musculus, Neutrophil, po, 264 h, 0.5 mg/kg once daily oral, read-out: inhibition of production of active NE compared with vehicle/LPS control): 19% | inhibition at 5 mg/kg ([2]; Mus musculus, Neutrophil, po, 264 h, 5 mg/kg once daily oral, read-out: inhibition of production of active NE compared with vehicle/LPS control): 75% | ED50 ([2]; Neutrophil, 264 h, once daily oral, read-out: ED50 for NE inhibition): 1.4 mg/kg

Structure (SMILES): CC[C@@H](/C=C/C(=O)N1CCc2ccccc21)NC(=O)C1(N)CCOCC1 [GSK2793660]
inhibition of downstream NSPs [5]: insufficient inhibition of downstream NSPs | skin events [5]: marked skin desquamation events
